# Experimental data reported in PMC11213902, “Enhancing hepatoprotective action: oxyberberine amorphous solid dispersion system targeting TLR4” (Scientific Reports, 2024).
# Columns and labels:
# [1] = In vitro dissolution study (paddle method); type: physicochemical; settings: 0.3% SDS medium, 37 °C
# Protocol: The dissolution Apparatus II (stirring paddle method) was utilized for the in vitro dissolution studies at a rotation speed of 100 ± 1 rpm in 250 mL 0.3% (w/v) sodium dodecyl sulfate (SDS) aqueous solution medium with a ZRS-8G dissolution tester (Tianjin Haiyida Technology Co., Ltd, Tianjin, China). All experiments were performed at 37 ± 0.5 °C. The OBB-ASDs samples were weighed to be equivalent to 2 mg of OBB. At predetermined time points (0, 5, 10, 20, 30, 60, and 90 min), 0.5 mL of sample solution was taken out and replaced with the same volume of fresh SDS solution (37 ± 0.5 °C). After being filtered through a 0.22 μm syringe filter, the filtered samples were collected and analyzed by HPLC.
# [2] = In vivo oral bioavailability study; design: species or system SD rats; settings: male, rat plasma OBB, 100 mg/kg, n = 6, mean ± SD
# Protocol: Male SD rats weighing 220 ± 15 g were obtained from the Guangdong Medical Laboratory Animal Center (GDMLAC, Guangzhou, China). After fasting overnight, six rats were taken in each group, based on respective treatment at a dose of 100 mg/kg each: OBB-HPMCAS and OBB-SUS (OBB suspension). After isoflurane anesthesia, blood samples were collected from the posterior orbital venous plexus at 5, 10, 20, 30, 60, 90, 120, 180, 240, 360, 480, 720, and 1440 min, respectively. After centrifugation (12,000 rpm, 5 min), plasma was collected and stored at − 80 °C for further analysis. For deproteinization of plasma, ethyl acetate (200 μL) was added to the mixture and vortexed for 3 min. After centrifugation for […], the supernatant was collected and vacuum dried at 40 °C, − 0.8 Mpa. The residue was redissolved with 100 μL methanol/water (50:50, v/v). After centrifugation (12,000 rpm, 10 min), the supernatant was analyzed by LC–MS/MS system. Pharmacokinetic parameters were calculated based on the plasma pharmacokinetics of OBB. The peak concentration (Cmax), time of the peak concentration (Tmax), half-life (T1/2), and area under the profile from time 0 to 24 h (AUC0-24), were calculated using a DAS software (Version 2.0; Drug And Statistics, Shanghai, China, RRID: SCR_022672).
# [3] = tested on: LPS/D-GalN-induced acute liver injury (ALI) mice; experiment: LPS/D-GalN-induced ALI, liver pathological changes (H&E); type: in vivo, C57BL/6 mice; settings: gavage once daily 7 days; OBB-ASDs 25 and 50 mg/kg, OBB-SUS 50 mg/kg, Silymarin 100 mg/kg
# Protocol: (§1) All mice were randomly divided into six groups (n = 8): normal control group (NC); LPS/D-GalN group; OBB-ASDs25 group (25 mg/kg OBB-HPMCAS); OBB-ASDs50 group (50 mg/kg OBB-HPMCAS); OBB-SUS group (50 mg/kg OBB suspension); Silymarin group (100 mg/kg Silymarin). The drug dosage design for the ALI trial was primarily based on our previous research findings[25] and preclinical experiments. Except for NC and LPS/D-GalN groups, all other groups of mice were respectively pretreated by gavage with the corresponding dose of OBB-ASDs, OBB-SUS, and Silymarin once daily for 7 consecutive days. Mice in NC and LPS/D-GalN group were given the same volume of saline by intragastric administration. At 2 h postdose, all mice (except the NC group) were exposed to 30 μg/kg LPS and 600 mg/kg D-GalN. Mice in NC group were received the same volume of PBS intraperitoneally. After challenging for 6 h, blood samples were collected from the eyeball vein under 2% sodium pentobarbital anesthesia. Subsequently, the liver was immediately dissected, weighed, washed with saline, and stored at − 80 °C until further analyzed.
# Liver tissue pathology was evaluated by regular hematoxylin–eosin (H&E) staining. […] According to the scoring system, liver injury was evaluated by pathologists blinded to the experimental protocol. Scores were determined as Dkhil et al. previously described (Table 3)[26].
# [4] = tested on: LPS/D-GalN-induced acute liver injury (ALI) mice; experiment: LPS/D-GalN-induced ALI, liver function analysis (serum ALT, AST); type: in vivo, C57BL/6 mice; settings: gavage once daily 7 days; OBB-ASDs 25 and 50 mg/kg, OBB-SUS 50 mg/kg, Silymarin 100 mg/kg; P < 0.05
# Protocol: as §1
# After centrifugated at 3000 g for 10 min, serum was acquired and the activities of ALT and AST were measured using commercial kits (Nanjing Jiancheng, China) following the manufacturer’s instructions.
# [5] = tested on: hepatic inflammatory mediators and oxidative stress in ALI mice; experiment: LPS/D-GalN-induced ALI, liver biochemical assessment (oxidative and inflammatory stress); type: in vivo, C57BL/6 mice
# Protocol: as §1
# Fresh liver tissues were homogenized in Tris–HCl buffer (pH 7.4) and centrifuged at 4500 rpm for 15 min (4 °C). Subsequently, the supernatants were collected and assayed for MDA, SOD, GSH, MCP-1, TNF-α, IL-1β, and IL-6 using its specific commercially available assay kit following the manufacturer’s instructions.
# [6] = tested on: mRNA expression of TLR4, MyD88, IL-1β, and IL-6; experiment: LPS/D-GalN-induced ALI, quantitative PCR of liver tissues; type: in vivo, C57BL/6 mice; settings: P < 0.01
# Protocol: as §1, with “-” for “−”, “analyzed. […] Quantitative PCR was performed on an Applied Biosystems 7500 Real-Time system (ABI 7500, RRID: SCR_018051). Primer sequences against mouse cDNAs used in qPCR were listed as follows: TLR4, [NT] (reverse); MyD88, […] (reverse); IL-6, [NT] (reverse); IL-1β, [NT] (reverse); and GAPDH, […] (reverse).” for “analyzed.”
# [7] = tested on: kidneys; experiment: Chronic nephrotoxicity assessment (kidney HE staining); type: in vivo, C57BL/6 mice; settings: mice, oral, 50 mg/kg, continuous administration for 4, 8, and 16 weeks
# Protocol: Male C57BL/6 mice were orally administered OBB and OBB-HPMCAS at a dose of 50 mg/kg for 16 weeks. Kidney tissues were collected at 4, 8, and 16 weeks for HE staining to observe the long-term effects of OBB administration on the kidneys.
# [8] = Preliminary experiment: absorption and oral bioavailability; type: in vivo; settings: pure OBB
# [9] = tested on: ALI challenged by LPS/D-GalN; design: method as in PMID 35691465; settings: previous research ref 8; cited from earlier work
# [10] = tested on: non-alcoholic fatty liver disease (NAFLD); design: method as in PMID 33831691; settings: cited from earlier work
# [11] = design: method as in PMID 30599908; settings: cited from earlier work
# [12] = compared with the LPS/D-GalN group
# [13] = pretreatment 7 days, OBB-ASDs 25 and 50 mg/kg, OBB-SUS 50 mg/kg, Silymarin 100 mg/kg, vs LPS/D-GalN group
# [14] = higher in LPS/D-GalN challenged mice
# [15] = qRT-PCR, elevation after LPS/D-GalN exposure
compound,measurement,setting,value
"COc1ccc2cc3n(c(=O)c2c1OC)CCc1cc2c(cc1-3)OCO2 [OBB, 8-Oxyberberine]","release / dissolution rate, pure OBB compared with formulations",[1],significantly slower
same,Cmax,[2],169 ± 18.6 ng/mL
same,Tmax,[2],4.67 ± 0.52 h
same,half-life,[2],2.99 ± 0.42 h
same,AUC(0-t),[2]; read-out: AUC0-24,1260 ± 130 ng·h/mL
same,liver tissue injury (H&E staining) vs model group,[3],conspicuously mitigated
same,serum ALT level vs LPS/D-GalN group,[4],extremely reduced
same,serum AST level vs LPS/D-GalN group,[4],extremely reduced
same,hepatic CAT content,[5]; [12],increasing
same,hepatic GSH content,[5]; [12],increasing
same,hepatic MDA level,[5]; [12],dramatically suppressed
same,hepatic SOD content,[5]; [12],increasing
same,IL-1β level in liver,[5]; [13],largely decreased
same,IL-6 level in liver,[5]; [13],largely decreased
same,MCP-1 level in liver,[5]; [13],largely decreased
same,TNF-α level in liver,[5]; [13],largely decreased
same,MyD88 mRNA expression (real-time PCR),[6]; [14],restored
same,TLR4 mRNA expression (real-time PCR),[6]; [14],restored
same,IL-1β mRNA expression level in liver,[6]; [15],markedly restore
same,IL-6 mRNA expression level in liver,[6]; [15],markedly restore
same,kidney damage (HE staining),[7],no significant kidney damage
same,absorption and oral bioavailability,[8],poor
same,effect on ALI challenged by LPS/D-GalN,[9],effectively attenuated
same,effect on non-alcoholic fatty liver disease (NAFLD),[10],pronounced therapeutic effect
same,solubility in water,[11],poorly soluble in water
